From the supplement of paper PMC10307832

What was measured:
Experiment in all cases: relative viability (nuclei count vs DMSO), 5 days (fraction); higher = more cells survive
[1] = compound: O=C(CCCCCCNC(=O)c1cnc(N(c2ccccc2)c2ccccc2)nc1)NO [Ricolinostat] + CS(=O)(=O)N1CCN(Cc2cc3nc(-c4cccc5[nH]ncc45)nc(N4CCOCC4)c3s2)CC1 [Pictilisib] (partner 1 µM)
In short: (§1)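 One day after seeding in 1536-well plates, lung cancer cell lines were dosed by pin tool. Dosing was either single-drug or a fixed anchor-drug dose plus five library-drug doses (not always all listed) in √10 steps. After 5 days, nuclei were stained in one fix-and-stain step and counted on 4× images, and relative viability is the nuclei count of treated wells over that of vehicle wells, given as the median of duplicate plates.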

[2] = compound: C1=CC=C(C(=C1)C2=CC=C(C=C2)C3=CSC4=C3C(=C(C(=O)N4)C#N)O)O + Cc1cc(Nc2cc(N3CCN(C)CC3)nc(Sc3ccc(NC(=O)C4CC4)cc3)n2)n[nH]1 [Tozasertib] (partner 0.1 µM)
In short: as §1

[3] = compound: CC1=CN2C(=O)C=C(N=C2C(=C1)C(C)NC3=CC=CC=C3)N4CCOCC4 [TGX 221] + COc1cccc2cc(-c3nc([C@H]4CC[C@H](C(=O)O)CC4)n4ncnc(N)c34)[nH]c12 [OSI-027] (partner 0.5 µM)
In short: as §1

[4] = compound: O=C(CCCCCCNC(=O)c1cnc(N(c2ccccc2)c2ccccc2)nc1)NO [Ricolinostat] + O=C(CCCCCCC(=O)Nc1ccccc1)NO [Vorinostat] (partner 1 µM)
In short: as §1

| Cell Line | relative viability ([1]; first compound 0.08 µM) | relative viability ([1]; first compound 0.253 µM) | relative viability ([1]; first compound 0.8 µM) | relative viability ([1]; first compound 2.53 µM) | relative viability ([2]; first compound 0.08 µM) | relative viability ([2]; first compound 0.253 µM) | relative viability ([2]; first compound 0.8 µM) | relative viability ([2]; first compound 2.53 µM) | relative viability ([2]; first compound 8 µM) | relative viability ([3]; first compound 0.08 µM) | relative viability ([3]; first compound 0.253 µM) | relative viability ([3]; first compound 0.8 µM) | relative viability ([3]; first compound 2.53 µM) | relative viability ([3]; first compound 8 µM) | relative viability ([4]; first compound 0.08 µM) | relative viability ([4]; first compound 0.253 µM) | relative viability ([4]; first compound 0.8 µM) | relative viability ([4]; first compound 2.53 µM) |
| --- | --- | --- | --- | --- | --- | --- | --- | --- | --- | --- | --- | --- | --- | --- | --- | --- | --- | --- |
| NCI-H1437 | 0.38 | 0.414 | 0.36 | 0.223 | 0.367 | 0.409 | 0.44 | 0.438 | 0.382 | 0.878 | 0.899 | 0.809 | 0.848 | 0.728 | 0.853 | 0.712 | 0.611 | 0.426 |
| SK-MES-1 | 0.277 | 0.34 | 0.304 | 0.293 | 0.842 | 1.07 | 0.942 | 1.01 | 0.923 | 0.552 | 0.53 | 0.592 | 0.532 | 0.473 | 0.912 | 1.03 | 1.07 | 0.932 |
| NCI-H647 |  | 0.42 | 0.415 | 0.456 | 0.2 | 0.608 | 0.366 | 0.314 | 0.246 | 0.475 | 0.562 | 0.483 | 0.517 | 0.425 | 0.562 | 0.464 | 0.52 | 0.441 |
| LK-2 |  | 0.497 | 0.48 | 0.483 |  | 0.152 | 0.149 | 0.198 | 0.198 | 0.212 | 0.246 | 0.216 | 0.225 | 0.237 | 0.393 | 0.311 | 0.261 | 0.192 |
| LU99A | 0.299 | 0.262 | 0.258 | 0.219 | 0.274 | 0.256 | 0.275 | 0.298 | 0.279 | 0.275 | 0.313 | 0.328 | 0.346 | 0.293 | 0.513 | 0.473 | 0.462 | 0.326 |
| NCI-H661 |  | 0.412 | 0.422 | 0.727 | 0.359 | 0.386 | 0.357 | 0.356 | 0.369 | 0.748 | 0.695 | 0.689 | 0.673 | 0.706 | 0.68 | 0.716 | 0.722 | 0.558 |
| NCI-H520 |  | 0.218 | 0.272 | 0.23 | 0.409 | 0.417 | 0.432 | 0.367 | 0.441 | 0.212 | 0.165 | 0.227 | 0.188 | 0.195 |  | 0.659 | 0.629 | 0.532 |
| HCC-78 |  | 0.196 | 0.163 | 0.184 | 0.465 | 0.41 | 0.611 | 0.503 | 0.375 | 0.295 | 0.385 | 0.33 | 0.306 | 0.326 |  | 0.433 | 0.395 | 0.362 |
| NCI-H1666 | 0.445 | 0.52 | 0.378 | 0.305 | 0.556 | 0.658 | 0.577 | 0.598 | 0.553 | 0.836 | 0.81 | 0.831 | 0.819 | 0.887 | 0.933 | 1.01 | 1.01 | 0.847 |
